# In the METLIN SMRT retention time set (Domingo-Almenara et al. 2019):
# Experiment: gradient 5% acetonitrile 3 min, to 50% in 2 min, to 85% in 15 min, held 3 min, 100 µL/min
# Conditions: column: Zorbax Extend-C18 2.1 x 50 mm; eluents: water / acetonitrile, 0.1% formic acid
# Summary of the method: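 Standards, all pure, were combined into mixtures of ~100 molecules and run at 100 μL/min on a Zorbax Extend-C18 column (2.1 × 50 mm, 1.8 μm) with water and acetonitrile, each containing 0.1% formic acid. A coupled quadrupole time-of-flight mass spectrometer operated in positive and negative ionization mode. Retention time values come from computationally picked adduct peaks, each inspected manually.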
row,Compound,RP-LC retention time [s]
1,Cc1cc(Nc2nc(C(=O)NCCCN3CCOCC3)cc3occc23)ccc1Br,724
2,Cc1ccc(NC(=O)c2cc(C(C)C)n3nccc3n2)c(C)c1,1200
3,COc1ccc(Cn2nc3ccc(S(=O)(=O)N4CCCCC4)cn3c2=O)cc1F,918
4,Cc1ccsc1CN1CCn2nnc(CCC(=O)N3CCOCC3)c2C1,628
5,CC(C)(C)C(=O)N1CCCC(C(=O)Nc2sc3c(c2C(N)=O)CCCC3)C1 (stereo not given),861
6,CCOc1ccc2nc(C(=O)NC3CCCCC3)cn2n1,897
7,OC[C@@H]1CN(Cc2cccc(OC(F)(F)F)c2)C[C@H]1c1ccncc1,570
8,COc1ccc(Oc2cc3c(cc2NC(=O)Nc2cccc(OC)c2)n(C)c(=O)n3C)cc1,920
9,COc1ccc(CCNS(=O)(=O)c2cccc3cccnc23)cc1OC,745
10,C=CCNC(=O)N1CC(=O)Nc2ccccc21,592
11,Cc1cc2c(c(=O)n1Cc1ccccc1)C(C(C)C)C(C#N)=C(N)O2 (stereo not given),769
12,CCn1c(=O)c(SCC(=O)NCCCN2CCCC(C)C2)nc2ccccc21 (stereo not given),615
13,CC(C)n1cnc2cc(CNC(=O)Cc3ccccc3F)ccc21,623
14,O=C(Nc1ccc(S(=O)(=O)Nc2nccs2)cc1)c1ccco1,616
15,Cn1c(=O)n(C)c2cc(N3CCCCC3)c(NC(=O)NC3CCCC3)cc21,654
16,Cc1ccc(NC(=O)Nc2nc3ccccc3s2)cc1NC(=O)Nc1nc2ccccc2s1,1040
17,CC(=O)N1CCc2cc(C)c(S(=O)(=O)NCC3CCCO3)cc21 (stereo not given),691
18,CCC(C)NC(=O)Cn1c(=O)n(-c2cc(OC)cc(OC)c2)c(=O)c2ccccc21 (stereo not given),800
19,O=C(NC1CCCCCC1)c1nc(N2CCCC2)c2ccccc2n1,759
20,O=C(Cn1c(-c2cccs2)cc2cc(Cl)ccc21)NCCCN1CCOCC1,726
21,CC12C(=O)N(c3nccs3)C(=O)C1(C)C1CCC2O1 (stereo not given),741
22,CCCCOC(=O)C1=CN(C)S(=O)(=O)N=C1C,875
23,CC(C)S(=O)(=O)c1cc2c(cc1NC(=O)c1ccc(F)cc1)n(C)c(=O)n2C,788
24,CCCn1ccc2sc(C)c(C(=O)NC3CCCC3)c2c1=O,760
25,COc1cc(-n2c(=S)[nH]c3ccccc3c2=O)c(Cl)cc1Cl,923
26,O=C(COc1ccc(Cl)cc1)NCC1(c2ccc(F)cc2)CC1,988
27,CCN1C(=O)C2CC3(CCN(C(=O)CC4CCCC4)CC3)CN2C1=O (stereo not given),741
28,CCNC(=O)N1CCCN(S(=O)(=O)C(C)C)CC1,614

row,Compound,RP-LC retention time [s]
1,COc1ccc2c(c1)N(CC(C)CN(C)C)c1ccccc1S2 (stereo not given),804
2,CCCC(=O)Nc1ccc(CCc2nc3ccc(C(=O)NCCC4=CCCCC4)cc3[nH]2)cc1,734
3,CC(=O)c1cccc(NS(=O)(=O)c2ccc(-c3c(C)noc3C)cc2)c1,805
4,CCCn1c(=O)sc2cc(S(=O)(=O)N3CCC(C(=O)N4CCC(C)CC4)CC3)ccc21,994
5,COCCNC(=O)CC1CCN(C(=O)c2ccc3oc(C4CC4)nc3c2)CC1,601
6,COc1ccc(-c2cn3c(CC(=O)Nc4ccc(Cl)cn4)csc3n2)cc1OC,715
7,Cn1cnc(S(=O)(=O)N2CCC(C(=O)N3CCN(c4cccc(C(F)(F)F)c4)CC3)CC2)c1,823
8,Cc1ccc(NC(=O)Cn2nc(C)cc2C(=O)Nc2cc(C)ccc2C)cc1,981
9,CCn1cc(S(=O)(=O)N2CCC(C3CCN(C(=O)NC)CC3)C2)cn1 (stereo not given),622
10,CC(=O)c1cccc(NC(=O)Cn2nc3c(cc2=O)CN(C(C)=O)CC3)c1,601
11,CC(C)n1c(=O)c(NCc2cccc(C(F)(F)F)c2)nc2ccncc21,725
12,CCC(C)C(NC(=O)c1ccccn1)C(=O)Nc1nc2ccccc2[nH]1 (stereo not given),715
13,CN1CCN(c2nc(C(=O)NC3CCCC3)cs2)CC1,585
14,COCc1noc([C@@H]2CC(F)(F)CN2C(=O)C2CC=CC2)n1,777
15,CCCNC(=O)CCc1nc2ccccc2n(CC(=O)Nc2cccc(SC)c2)c1=O,819
16,CC(C)(C)c1csc(-c2csc(S(=O)(=O)Nc3ccc(Cl)cc3F)c2)n1,1300
17,CN1CCCN(C(=O)C2CC(=O)N(c3ccc4c(c3)CCN4C(=O)C3CC3)C2)CC1 (stereo not given),564
18,Cc1cc(NC(=O)C(C)C)nn1Cc1ccccc1,778
19,O=c1oc2cc(O)ccc2cc1-c1ccc(F)cc1,852
20,O=C(c1cc(C2CC2)[nH]n1)N1CC(F)(F)C[C@H]1c1nc(C2CC2)no1,794
21,Cc1ccc(C)c(NC(=O)N2CCC(N3CCN(Cc4cccc(F)c4)C(=O)C3=O)CC2)c1,767
22,CCCN1C(=O)c2cc(S(=O)(=O)N3CCCCC3CC)ccc2Oc2cccnc21 (stereo not given),1260
23,C=C1C(=O)O[C@@H]2[C@H]3O[C@]3(C)CC/C=C(\C)CC[C@@H]12,898
24,O=C(CN1CC=C(c2cnn(-c3ccccc3)c2)CC1)N1CCOCC1,604
25,Cc1cc(NC(=O)c2cc(=O)c3ccccc3o2)n(-c2nc(-c3ccc(F)cc3)cs2)n1,1240
26,CNC(=O)Cc1csc(-c2ccc(F)cc2)n1,716
27,Cc1ccc(NC(=O)C2(C)Oc3cccnc3N(C(C)C)C2=O)c(C)c1 (stereo not given),1040

# Next, values leading:
row,RP-LC retention time [s],Compound
1,615,COc1ccc(N2CCN(C(=O)c3cn4ccc(C)cc4n3)CC2)cc1
2,882,CC(CCc1ccccc1)NC(=O)C1CCN(S(=O)(=O)c2ccc3c(ccn3C)c2)CC1 (stereo not given)
3,1010,CCc1nc(-c2csc(S(=O)(=O)N3CCC(C(=O)Nc4ccccc4CC)CC3)c2)no1
4,984,COc1cccc(-c2ccc(=O)n(Cc3nc(-c4ccc(F)cc4)no3)n2)c1
5,775,O=c1c2nc(-c3ccccc3)cn2ccn1-c1ccc(F)cc1
6,1080,CCc1nc2cc(-c3noc(-c4ccc(OC)c(OC)c4)n3)ccc2o1
7,1090,CCN1C(=O)C2(CCN(S(=O)(=O)c3ccc(F)c(C)c3)CC2)c2ccccc21
8,569,CC(C)NC(=O)NCCN1CCN(c2ccccc2)CC1
9,582,O=C(Cc1csc(SCc2ccncc2)n1)N1CCN(c2ccccc2)CC1
10,948,COc1ccccc1-c1noc(Cn2ncn3nc(-c4cccs4)cc3c2=O)n1
11,791,O=C(Cn1ccc2ccc(N3CCOCC3)nc21)NCc1ccc2c(c1)OCO2
12,736,COc1ccc(N2C=C(C(=O)N3CCCC3)S(=O)(=O)c3ccc(F)cc32)cc1
13,1030,CCc1nc(-c2csc(S(=O)(=O)N3CCCC(C(=O)Nc4ccc(F)cc4)C3)c2)no1 (stereo not given)
14,1070,COc1ccccc1N1CCN(c2cc(SCC(=O)Nc3cc(C)cc(C)c3)ncn2)CC1
15,729,CN1c2ccccc2C(=O)NC12CCN(C(=O)Nc1ccc(F)cc1)CC2
16,736,Cc1cc(N(C)C)nc(N2CCN(C(=O)c3ccc(C(C)(C)C)cc3)CC2)n1
17,699,CCCc1ccc(S(=O)(=O)N2CCN(c3nc4ccncc4n(C)c3=O)CC2)cc1
18,962,Cc1nc(-c2ccc(-n3cc(C(=O)Nc4ccc(Br)cc4F)c(C)n3)cc2)no1

row,RP-LC retention time [s],Compound
1,1140,CCOC(=O)c1sc(NC(=O)c2ccc([N+](=O)[O-])cc2)nc1-c1ccccc1
2,1060,Cc1ccc(-c2nnc(Cc3nc(-c4cccc(F)c4)no3)o2)cc1
3,951,Cn1c(=O)c(N2CCN(C(=O)C3(c4ccccc4)CC3)CC2)nc2ccccc21
4,972,COc1ccccc1-n1nnc(C(=O)OCc2nc(-c3ccccc3)oc2C)c1C
5,594,O=C(Nc1cccnc1)c1ccccc1OCc1ccc(S(=O)(=O)N2CCOCC2)o1
6,653,O=C(NCc1cccc(Br)c1)C1CCCN(c2ccc(N3CCOCC3)nn2)C1 (stereo not given)
7,585,O=C(CCc1nnc2ccc(N3CCCC3)nn12)N1CCN(c2ccccn2)CC1
8,912,CC(=O)N1c2ccc(S(=O)(=O)N3CCCCCC3)cc2CC1C(=O)NCc1ccccc1 (stereo not given)
9,1100,CC(C)Oc1ccc(-c2noc(Cc3nnc(-c4ccccc4)o3)n2)cc1
10,1080,Cc1ccc(-c2noc(-c3nn(CC(=O)N4CCCC4)c4ccccc34)n2)cc1
11,699,Cc1nc(-c2cccc(-c3noc(C(=O)NCCCN4CCC(C)CC4)n3)c2)cs1
12,869,CN(Cc1ccccc1)C(=O)c1cn(-c2cc(N3CCSCC3)ncn2)cn1
13,934,Cc1ccc(NC(=O)N(C)CCc2noc(COc3ccccc3)n2)c(C)c1
14,880,Cc1ccc(C)c(NC(=O)Cn2c(=O)nc(N3CCC(C)CC3)c3ccccc32)c1
15,1280,O=S(=O)(NC1CCCCC1)c1ccccc1-c1nc(-c2ccccc2)no1
16,698,O=S(=O)(c1cccnc1)N1CCCn2nc(-c3cccc(F)c3)cc2C1
17,675,CCN1CCN(c2ccc(-c3nc(-c4ccccc4)no3)cn2)CC1
